The structures appear in SMILES notation. Counter-ions that a name gives are not always drawn.

Broadly, the melting point is the temperature of the solid-liquid transition. On to `CN/N=C(\C)C(C)(C)NCCCNC(C)(C)/C(C)=N/O` (as salt: hydrochloride) [Example 2, 3,3,9,9-Tetramethyl-4,8-diazaundecane-2,10-dione 2-(2-Methylhydrazone) 10-Oxime], for which the melting point was 175 to 177 °C.

In turn, `C/C(=N\O)C(C)(C)NCCCNC(C)(C)/C(C)=N/NC(=O)c1ccccc1` (as salt: trifluoroacetate) [Example 4, 3,3,9,9-Tetramethyl-4,8-diazaundecane-2,10-dione 2-(2-Benzoylhydrazone) 10-Oxime] displayed a melting point of 95 to 96 °C.

For the compound `C/C(=N\N)C(C)(C)NCCCNC(C)(C)/C(C)=N/O` [Example 1, 3,3,9,9-Tetramethyl-4,8-diazaundecane-2,10-dione 2-Hydrazone 10-Oxime], the melting point lay in the range of 125 to 126 °C.

`C/C(=N\O)C(C)(C)NCCCNC(C)(C)/C(C)=N/Nc1ccccc1` [Example 3, 3,3,9,9-Tetramethyl-4,8-diazaundecane-2,10-dione 2-(2-Phenyl-hydrazone) 10-Oxime] gave a melting point of 145 to 146 °C.

Consider `C/C(=N\N)C(C)(C)NCCCNC(C)(C)/C(C)=N/N` [Example 5, 3,3,9,9-Tetramethyl-4,8-diazaundecane-2,10-dione Bishydrazone], for which the melting point was 95 to 96 °C.

`C/C(=N\O)C(C)(C)NCCNC(C)(C)/C(C)=N/Nc1ccccc1` [Example 6, 3,3,8,8-Tetramethyl-4,8-diazadecane-2,9-dione 2-(2-Phenylhydrazone) 9-Oxime] showed a melting point of 95 to 97 °C.

These data come from US6660246B1, “Ligands and metal complexes thereof” (Bracco International, BV, priority 1994, dated 2003).
